# Test results reported in PubChem BioAssay AID1996.
# Conditions: buffer; pH 7.4; 200.0 µM
row,Compound,solubility kinetic [µg/mL]
1,CCN(CC)S(=O)(=O)c1ccc(/C=C/C(=O)OCC(=O)NCc2ccco2)cc1,17.3
2,Cl.c1cncc(CNCCc2c[nH]c3ccccc23)c1,38.5
3,CN(CC(=O)Nc1ccc2c(c1)OCCO2)CC(=O)Nc1ccc(F)c(F)c1F,> 61.4
4,COc1ccc(-c2csc(N3CCSCC3)n2)cc1,0.3
5,O=C(c1cc(-c2ccccc2O)on1)N1CCOCC1,> 41.1
6,Cc1ccc(Sc2ncccc2C(N)=O)cc1,> 36.6
7,O=C1/C(=C/c2ccc([N+](=O)[O-])cc2)Oc2cc(O)ccc21,6.1
8,COc1ccccc1CNC(=O)c1cccnc1,> 36.3
9,CCc1ccc(CNC(=O)CCc2cn(C)c3ccccc23)cc1,1.2
10,CC(Sc1ncnc2sccc12)C(=O)Nc1ccc(S(N)(=O)=O)cc1 (centres undefined),8.7
11,COc1ccc(CNC(=O)Cc2cn(C)c3ccccc23)c(OC)c1,> 50.8
12,Cc1noc(C)c1-c1nc(CS(=O)(=O)c2ccc(F)cc2)no1,43.4
13,Cn1cnc(Sc2ncnc3nc[nH]c23)c1[N+](=O)[O-],29.7
14,COc1ccc(NC(=O)N2CCCc3cc(C)ccc32)c(OC)c1,27.8
15,CCOc1ccc(S(=O)(=O)NCCc2ccccn2)cc1,> 46
16,Cc1ccccc1CSCCC(=O)NCCc1ccccc1,9.8
17,Cc1ccc(NC(=O)c2cc3c(=O)oc4ccc(C)cc4c3s2)nc1,< 0.4
18,CCOC(=O)c1c2c([nH]c(=S)c1C#N)CCCC2,29.5
19,Cc1ccc(C)c(NC(=O)C[n+]2ccccc2)c1.[Cl-],40.8
20,CC1CCN(C(=S)c2cccc(O)c2)CC1,32.8

row,Compound,solubility kinetic [µg/mL]
1,CCN1CCN(CC2COc3ccccc3O2)CC1.Cl (centres undefined),> 50.3
2,Cc1cccc(Cc2cnc(NC(=O)C3=NCCN3)s2)c1,7
3,O=C(Nc1nccs1)C1=COCCO1,> 31.8
4,O=C(NCC1COc2ccccc2O1)C1CCN(S(=O)(=O)c2ccccc2)CC1 (centres undefined),40.8
5,S=C1NCN(Cc2ccco2)CN1,> 29.6
6,O=S(=O)(NCCc1csc(-c2ccccc2)n1)c1cccnc1,> 51.8
7,CN(Cc1ccccc1)C(=O)COC(=O)c1ccc(Cl)cc1N,2.4
8,O=S(=O)(Nc1ccc2ccccc2n1)c1ccc2c(c1)CCO2,45.9
9,CC(=O)c1c(C)cc(C)c(CSc2ccccn2)c1C,20.5
10,COc1ccc(NC(=O)c2ccc3nc[nH]c3c2)c(OC)c1,42.9
11,O=C(CSc1nnc2ccccn12)NNC(=O)c1cccc(Cl)c1,> 54.3
12,CCc1cccc(NS(=O)(=O)c2ccc3c(c2)NC(=O)CC(=O)N3)c1,> 53.9
13,CC1CN(C(=O)NCc2ccccc2)c2cc(Cl)ccc2O1 (centres undefined),6.3
14,COc1ccc(C(=O)N2CCN(CCc3ccccn3)CC2)cc1.Cl,> 54.3
15,COC(=O)c1c(C)[nH]c(C(=O)C(C)OC(=O)c2cnc(C)cn2)c1C (centres undefined),49.2
16,CC(=O)c1ccc(Nc2c([N+](=O)[O-])ccc3nonc23)cc1,< 0.2
17,COc1ccc(S(=O)(=O)N2CCCCC2)cc1NC(=O)c1[nH]c(C)c(C(C)=O)c1C,3.2
18,Cc1cnc(C(=O)OCC(=O)c2ccc(-c3ccccc3)cc2)cn1,7.7
19,O=C(CCCOc1ccccc1)NCCc1nc2ccccc2[nH]1,> 48.5
20,Cc1cc(Cl)ccc1NC(=S)NCc1ccc(F)cc1,2.8

row,Compound,solubility kinetic [µg/mL]
1,Cc1cccc(N=C2NC(=O)/C(=C/c3cccn3C)S2)c1C,8.2
2,CC1CCc2[nH]c3ccc(C(=O)NCCCOC(C)C)cc3c2C1 (centres undefined),> 49.3
3,CCN(CC)S(=O)(=O)c1ccc(O)c(C(=O)OCC(=O)NC23CC4CC(CC(C4)C2)C3)c1,25.5
4,COc1ccccc1Nc1nc(C)cc(C)n1,22.1
5,Cc1ccc(S(=O)(=O)NCCc2ccncc2)cc1C,> 43.6
6,Cc1cccc(NC(=O)NCC(c2ccco2)N2CCCCC2)c1 (centres undefined),> 49.1
7,Cc1ccc(NC(=O)Cn2c(C)csc2=O)cc1,> 39.3
8,CCS(=O)(=O)N1CCCC(C(=O)c2ccc(OC)cc2C)C1 (centres undefined),42
9,O=S(=O)(/N=C(\[O-])C[n+]1ccccc1)c1ccc(Cl)cc1,> 46.6
10,COc1ccc(N2C(=O)c3ccccc3NC2(C)C)cc1,8.3
11,CNC(=O)c1[nH]cnc1C(=O)Nc1ccccn1,> 36.8
12,O=C(Cc1ccccc1)NCCc1c[nH]c2ccccc12.O=C(O)C(=O)O,47.8
13,O=C(Nc1ccc2c(c1)CCC2)c1cccc(OC(F)F)c1,10.2
14,Cc1ccc(C)c(C(=O)CCC(=O)Nc2ccc(F)cc2)c1,1
15,c1ccc(-c2nnc(-c3ccccn3)c(-c3ccccn3)n2)nc1,> 46.8
16,O=C(COc1ccc(Br)cc1)N1CCc2ccccc21,< 0.7
17,CC1CCCN(S(=O)(=O)c2cnc[nH]2)C1 (centres undefined),> 34.4
18,COc1ccc(C2C(C)C3(O)CC(C#N)(C(=O)N3)C2(C#N)C#N)cc1 (centres undefined),> 50.5
19,O=C(c1c[nH]c2ccccc2c1=O)N1CCCCCC1,> 40.5
